Several values for one entry are separate records, joined by “and”; a condition that tells them apart may be missing. Equal values may be shown once. Toxic doses and inconclusive results are not listed.

The test system of the assay is P388 leukemia ip, CD2F1 mice, survival T/C. Description: NCI In Vivo Anticancer Drug Screen. Data for tumor model P388 Leukemia (intraperitoneal) in CD2F1 (CDF1) mice. Conditions: endpoint: median survival time, higher = longer survival. In a few lines: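 Mice carrying the transplanted tumor received test compound or vehicle. Survival was recorded in each group, and the value is the treated-group measurement divided by that of the vehicle-treated control group.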

[1] abbreviates: dose: 50.0 mg/kg/injection, schedule: Q01DX005 (ip), vehicle: Klucel (hydroxypropylcellulose) (HPC).
Where [2] appears, read: dose: 100.0 mg/kg/injection, schedule: Q01DX005 (ip), vehicle: Klucel (hydroxypropylcellulose) (HPC).
The mark [3] stands for this setting: dose: 200.0 mg/kg/injection, schedule: Q01DX005 (ip), vehicle: Klucel (hydroxypropylcellulose) (HPC).
The mark [4] stands for this setting: dose: 100.0 mg/kg/injection, schedule: Q04DX002 (ip), vehicle: Klucel (hydroxypropylcellulose) (HPC).
[5] abbreviates: dose: 100.0 mg/kg/injection, schedule: Q04DX003 (ip), vehicle: saline.
Setting [6] is: dose: 50.0 mg/kg/injection, schedule: Q01DX009 (ip), vehicle: saline.
Setting [7] is: dose: 100.0 mg/kg/injection, schedule: Q01DX009 (ip), vehicle: saline.
[8] abbreviates: dose: 12.5 mg/kg/injection, schedule: Q01DX005 (ip), vehicle: Klucel (hydroxypropylcellulose) (HPC).

As to `CC#CCOCC(O)CO` (centres undefined), the T/C (dose: 12.5 mg/kg/injection, schedule: Q01DX009 (ip), vehicle: water) was 105 % of control; the T/C (dose: 25.0 mg/kg/injection, schedule: Q01DX009 (ip), vehicle: water) is 108 % of control; the T/C (dose: 50.0 mg/kg/injection, schedule: Q01DX009 (ip), vehicle: water) is 121 % of control; the T/C (dose: 67.0 mg/kg/injection, schedule: Q01DX009 (ip), vehicle: water) is 120 % of control.

`Nc1nc(C2CCCCC2)c(Br)c(=O)[nH]1`: the T/C was 97 % of control under setting [1], 92 % of control under setting [2] and 92 % of control under setting [3].

Turning to `O=C([O-])c1ccccc1[O-].[Cu+2].c1cnc2c(c1)ccc1cccnc12`, the T/C under setting [4] was 109 % of control.

In the case of `NC(=O)COC1OC(CO)C(O)C(O)C1O` (centres undefined), the T/C under setting [1] is 97 % of control, the T/C under setting [2] was 100 % of control and the T/C under setting [3] was 107 % of control.

`CCC/C=C/C=C\C(=O)O[C@@H]1[C@@H](C)[C@]2(O)[C@@H]3C=C(C)C(=O)[C@H]3CC(COC(C)=O)=C[C@H]2[C@@H]2C(C)(C)[C@]12OC(C)=O`: the T/C is 123 % of control and 92 % of control (dose: 0.38 mg/kg/injection, schedule: Q01DX005 (ip), vehicle: saline + alcohol); 100 % of control (dose: 0.38 mg/kg/injection, schedule: Q01DX005 (ip), vehicle: saline with Tween-80); 105 % of control (dose: 0.75 mg/kg/injection, schedule: Q01DX005 (ip), vehicle: saline with Tween-80); 103 % of control (dose: 1.5 mg/kg/injection, schedule: Q01DX005 (ip), vehicle: saline with Tween-80); 117 % of control (dose: 3.0 mg/kg/injection, schedule: Q01DX005 (ip), vehicle: saline with Tween-80).

Turning to `COc1ccc2[nH]c3c(c2c1)CCNC3CC(C)CCC=C(C)C` (centres undefined), the T/C reads like this: (dose: 12.5 mg/kg/injection, schedule: Q01DX009 (ip), vehicle: saline with Tween-80) 99 % of control; (dose: 25.0 mg/kg/injection, schedule: Q01DX009 (ip), vehicle: saline with Tween-80) 98 % of control.

For the molecule `CC(C)(C)c1cc(C2C(=O)c3ccccc3C2=O)cc(C(C)(C)C)c1O`, the T/C is 110 % of control (dose: 100.0 mg/kg/injection, schedule: Q04DX002 (ip), vehicle: saline); 107 % of control (dose: 200.0 mg/kg/injection, schedule: Q04DX002 (ip), vehicle: saline); 107 % of control (dose: 400.0 mg/kg/injection, schedule: Q04DX002 (ip), vehicle: saline).

With `c1ccc(C23CN(Cc4ccccc42)Cc2ccccc23)cc1`, the T/C is, setting by setting: (dose: 100.0 mg/kg/injection, schedule: Q01DX001 (ip), vehicle: saline with Tween-80) 95 % of control; (dose: 200.0 mg/kg/injection, schedule: Q01DX001 (ip), vehicle: saline with Tween-80) 88 % of control.

As to `O=C[C@@H](CO)O[C@H](C=O)c1c[nH]c(=O)[nH]c1=O`, the T/C reads like this: (dose: 5.0 mg/kg/injection, schedule: Q01DX005 (ip), vehicle: saline) 118 % of control; (dose: 12.5 mg/kg/injection, schedule: Q01DX005 (ip), vehicle: saline) 155 % of control; (dose: 12.5 mg/kg/injection, schedule: Q04DX003 (ip), vehicle: saline) 124 % of control; (dose: 25.0 mg/kg/injection, schedule: Q01DX005 (ip), vehicle: saline) 156 % of control and 158 % of control; (dose: 40.0 mg/kg/injection, schedule: Q01DX005 (ip), vehicle: saline) 155 % of control; (dose: 50.0 mg/kg/injection, schedule: Q01DX005 (ip), vehicle: saline) 173 % of control and 190 % of control. Besides, the T/C runs as follows: (dose: 80.0 mg/kg/injection, schedule: Q01DX005 (ip), vehicle: saline) 186 % of control and 245 % of control; under setting [5], 185 % of control.

Consider `C=C(C[N+](C)(C)C)c1ccc([N+](=O)[O-])cc1`, for which the T/C under setting [1] is 102 % of control.

Turning to `[Cl][Hg][Cl]`, the T/C is 95 % of control (dose: 0.94 mg/kg/injection, schedule: Q01DX005 (ip), vehicle: saline) and 101 % of control (dose: 1.88 mg/kg/injection, schedule: Q01DX005 (ip), vehicle: saline).

Regarding `COc1ccccc1C1C2CCCC(C2=O)C(c2ccccc2OC)N1C` (centres undefined), the T/C is 98 % of control under setting [5]; 99 % of control (dose: 200.0 mg/kg/injection, schedule: Q04DX003 (ip), vehicle: saline); 99 % of control (dose: 400.0 mg/kg/injection, schedule: Q04DX003 (ip), vehicle: saline).

Regarding `C/C(=N/NC(=O)c1ccccc1)C(=O)OC(=NC1CCCCC1)NC1CCCCC1`, the T/C runs as follows: under setting [4], 99 % of control; (dose: 200.0 mg/kg/injection, schedule: Q04DX002 (ip), vehicle: Klucel (hydroxypropylcellulose) (HPC)) 95 % of control; (dose: 400.0 mg/kg/injection, schedule: Q04DX002 (ip), vehicle: Klucel (hydroxypropylcellulose) (HPC)) 96 % of control.

Take `CCCCCCCCCCCCCC[N+]1([O-])CCCCCC1`: the T/C under setting [6] was 90 % of control.

With `CC(C)(C)OC(=O)N(C=O)C(Cc1c[nH]c2ccccc12)C(=O)O` (centres undefined), the T/C by setting is: under setting [1], 100 % of control; under setting [2], 103 % of control; under setting [3], 99 % of control.

As for `C(CCCSC1=NCCN1)CCSC1=NCCN1`, the T/C runs as follows: under setting [6], 103 % of control; under setting [7], 100 % of control.

As to `C=C1C(=O)OC2/C=C(\C)CC(O)/C=C(\C)CC(OC(=O)C3(CO)OC3C)C12` (centres undefined), the T/C by setting is: (dose: 25.0 mg/kg/injection, schedule: Q01DX001 (ip), vehicle: Klucel (hydroxypropylcellulose) (HPC)) 113 % of control; (dose: 50.0 mg/kg/injection, schedule: Q01DX001 (ip), vehicle: Klucel (hydroxypropylcellulose) (HPC)) 101 % of control; (dose: 100.0 mg/kg/injection, schedule: Q01DX001 (ip), vehicle: Klucel (hydroxypropylcellulose) (HPC)) 108 % of control.

`C=Cn1ccnc1`: the T/C runs as follows: (dose: 6.25 mg/kg/injection, schedule: Q01DX009 (ip), vehicle: saline) 100 % of control; (dose: 12.5 mg/kg/injection, schedule: Q01DX009 (ip), vehicle: saline) 103 % of control and 123 % of control; (dose: 25.0 mg/kg/injection, schedule: Q01DX009 (ip), vehicle: saline) 103 % of control; under setting [6], 108 % of control and 113 % of control and 114 % of control; under setting [7], 91 % of control.

Take `CCCCCCCCCCCCCCC1(C(=O)OC)CO1` (centres undefined): the T/C reads like this: (dose: 6.25 mg/kg/injection, schedule: Q01DX005 (ip), vehicle: Klucel (hydroxypropylcellulose) (HPC)) 94 % of control; under setting [8], 94 % of control; under setting [1], 102 % of control.

Consider `Cc1ccsc1S(N)(=O)=O`, for which the T/C under setting [8] is 95 % of control; the T/C (dose: 25.0 mg/kg/injection, schedule: Q01DX005 (ip), vehicle: Klucel (hydroxypropylcellulose) (HPC)) is 98 % of control; the T/C under setting [1] is 106 % of control and 107 % of control; the T/C under setting [2] was 113 % of control; the T/C under setting [3] is 113 % of control.

In the case of `COc1cc(/C=C2/Nc3ccc(Cl)cc3NC2=O)ccc1O`, the T/C is 93 % of control (dose: 60.0 mg/kg/injection, schedule: Q01DX005 (ip), vehicle: saline with Tween-80); 98 % of control (dose: 120.0 mg/kg/injection, schedule: Q01DX005 (ip), vehicle: saline with Tween-80); 96 % of control (dose: 240.0 mg/kg/injection, schedule: Q01DX005 (ip), vehicle: saline with Tween-80).

Take `CC(=O)c1c(-c2ccc(-c3c[nH]c(C)c3C(C)=O)cc2)c[nH]c1C`: the T/C was 95 % of control (dose: 100.0 mg/kg/injection, schedule: Q04DX002 (ip), vehicle: saline with Tween-80); 91 % of control (dose: 200.0 mg/kg/injection, schedule: Q04DX002 (ip), vehicle: saline with Tween-80); 91 % of control (dose: 400.0 mg/kg/injection, schedule: Q04DX002 (ip), vehicle: saline with Tween-80).

For the molecule `Cc1ccc(C)c2c1C(=O)c1c(C)ccc(C)c1C2(O)C#Cc1ccccc1`, the T/C (dose: 50.0 mg/kg/injection, schedule: Q01DX009 (ip), vehicle: saline with Tween-80) was 98 % of control; the T/C (dose: 100.0 mg/kg/injection, schedule: Q01DX009 (ip), vehicle: saline with Tween-80) is 89 % of control; the T/C (dose: 200.0 mg/kg/injection, schedule: Q01DX009 (ip), vehicle: saline with Tween-80) was 89 % of control.

Consider `O=C(/C=C/c1ccc(Cl)cc1Cl)c1ccc(Cl)cc1`, for which the T/C is, setting by setting: (dose: 100.0 mg/kg/injection, schedule: Q04DX003 (ip), vehicle: saline with Tween-80) 100 % of control; (dose: 200.0 mg/kg/injection, schedule: Q04DX003 (ip), vehicle: saline with Tween-80) 95 % of control; (dose: 400.0 mg/kg/injection, schedule: Q04DX003 (ip), vehicle: saline with Tween-80) 90 % of control.

(Values after PubChem BioAssay AID330 (DTP/NCI, 2004).)
